Results published in patent US20250352615A1, “COMPOSITIONS AND METHODS FOR THE MODULATION OF PIEZO1 AND TRPV4” (Duke University, priority 2021, published 2025).
Values belong to the compound of their own block, whether it stands above or below them.

Key:
TRPV4 = biological target: T1, TRPV4 (Mus musculus, UniProt Q9EPK8); assay: Calcium imaging of TRPV4-mediated [Ca2+]i in pancreatic acini (agonists, shear stress, Yoda1 sustained phase); type: cell-based; settings: for agonist effect on [Ca2+]i: GSK101 50 nM, arachidonic acid 20 μM, 5′,6′-EET 5 μM
T1 construct: endogenous in cells; host or cells: freshly isolated mouse pancreatic acini (C57BL/6J WT)
Method: (§1) Mouse pancreatic acini were isolated using a standard collagenase digestion protocol. Isolated acini were plated on a thin-layered, Matrigel-coated, glass-bottom, culture plate (MatTek, P35G-0-14-C). Freshly isolated acini were used in each experiment.
Parallel-plate fluid flow chambers (μ-Slide I 0.4 Luer, and μ-Slide I 0.2 Luer from Ibidi GmbH) were used to measure the shear stress-induced changes in intracellular calcium, mitochondrial depolarization, and trypsin activation. The constant flow rate with shear stress (T) was determined as follows: τ=η×[…] φ for μ-Slide I 0.4 Luer and τ=η×330.4 φ for μ-Slide I 0.2 Luer, where η=viscosity of the medium and φ=flow rate (according to the manufacturer's instructions, Ibidi).
(§2) Calcium imaging in pancreatic acini was performed as previously described. The chemicals used in calcium imaging experiments included the following: Yoda1 (Tocris; 5586), GsMTx4 (Abcam; ab141871), 5′,6′-EET (Santa Cruz Biotechnology; sc-221066), AA (Millipore Sigma; A3611), HC067047 (Tocris; 4100), GSK1016790A (Millipore Sigma; G0798), RN1734 (Tocris; 3746), AACOCF3 (Tocris; 1462), YM26734 (Tocris; 2522), GF109203X (Tocris; 0741), and CCK8 (Sigma-Aldrich).

Piezo1 [1] = biological target: T2, Piezo1 (Mus musculus, UniProt E2JF22); assay: Calcium imaging of Yoda1 (Piezo1)-mediated [Ca2+]i in pancreatic acini; type: cell-based; settings: for effect on Yoda1-induced sustained [Ca2+]i elevation, YM26734 and AACOCF3 together: YM26734 10 μM + AACOCF3 30 μM, preincubated 10 minutes; for effect of protein kinase A and C blockers on Yoda1-induced sustained calcium elevation: KT5720 5 μM, GF109203X 20 μM
T2 construct: endogenous in cells; host or cells: freshly isolated mouse pancreatic acini (WT = Piezo1 fl/fl on a C57BL/6J background)
Method: as §1, §2

Piezo1 [2] = biological target: T2, Piezo1; assay: Calcium imaging of Piezo1-mediated [Ca2+]i in mouse PSCs; type: cell-based; settings: for effect on Yoda1-mediated sustained [Ca2+]i elevation, YM26734 and AACOCF3 together: YM26734 10 μM + AACOCF3 30 μM, Yoda1 25 μM, PSCs from WT mice
Method: Mouse and human PSCs were isolated using collagenase digestion. Modified Krebs Henseleit Buffer (KHB) solution (100 mL) was prepared as previously described by Romac et al., Nat. Commun. 9(1):1715 (2018). Pancreatic tissue was digested with 2 mg of collagenase NB 8 (SERVA, catalog 17456) dissolved in 10 mL of modified KHB solution containing 1 mg soybean trypsin inhibitor (SBTI 1-S; Millipore Sigma, catalog T9003) and 20 mg BSA (Thermo Fisher Scientific; BP1600-100). Digestion solution (5 mL) was used to inflate the pancreas. Pancreas with 5 mL of digestion solution was incubated in a shaking water bath for 10 minutes at 37° C. The solution was then discarded. The pancreas tissue was cut into small pieces and digested with fresh 5 mL digestion buffer. Tissue was incubated in a shaking water bath for 40 minutes at 37° C. The cells were then separated from tissue by pipetting up-down with a 10 mL pipette and passed sequentially through a 70 μm and a 40 μm cell strainer. The filtrate was centrifuged at 150×g for 3 minutes at room temperature. The cells were washed with 10 mL Leibovitz's media (Thermo Fisher Scientific, catalog 11415-064), passed through a 20 μm filter, and centrifuged at 80×g for 3 minutes at room temperature. The supernate was removed, and isolated stellate cells were plated on a thin-layered Matrigel-coated glass bottom culture plate (MatTek, P35G-0-14-C). Before plating the cells, Matrigel solution (Corning, catalog 354234) at a ratio of 1.5:100 DMEM/F12 (Thermo Fisher Scientific, catalog 11330-032) was poured onto the culture plate and incubated for 2 hr at 37° C. to form a thin layer of Matrigel coating. Matrigel mixture was removed, and the plate was washed with PBS before cells were plated. Cell culture media, DMEM/F12 with 5% FBS was used for mouse stellate cells. Fresh, human pancreatic tissue was digested with collagenase as described above with modifications. Collagenase (2.5 mg) in 10 mL of modified KHB solution was used for digestion. The digested tissues were filtered through a 100 μm cell strainer. The cells were cultured with DMEM/F12 with 10% FBS in a Matrigel-coated plate. After 24 hr, the cell media was replaced with fresh media to remove unattached and dead cells. After 2 days, cells were immunostained for GFAP and used for experiments. Perinuclear fat droplets were stained with BODIPY 493/503 (4,4-Difluoro-1,3,5,7,8-Pentamethyl-4-Bora-3a,4a-Diaza-s-Indacene; Invitrogen, catalog D3922) to confirm stellate cell quiescence. The cell viability following Yoda1 treatment was analyzed using the Live/Dead cell imaging kit (Thermo Fisher Scientific, catalog R37601). RNAs were isolated using the RiboPure Kit (Invitrogen, catalog AM1924) according to manufacturer's instructions.
Fluid shear stress and mechanical pushing applied to stellate cells were achieved as previously described by Wang et al., J. Clin. Invest. 126(12): 4527-4536 (2016). Parallel-plate fluid flow chambers (μ-Slide I 0.4 Luer, or μ-Slide I 0.2 Luer from Ibidi) were used for fluid shear stress experiments. The fluid shear stress (T) was calculated using the formula: τ=η×[…] φ for μ-Slide I 0.4 Luer and τ=η×330.4 φ for μ-Slide I 0.2 Luer, where r represents viscosity of the medium and φ represents flow rate (according to the manufacturer's instructions, Ibidi). Mechanical pushing was achieved by applying a blunt borosilicate glass pipette once to the cell membrane with a deflection of 2-3 μm for 1 second using a micromanipulator (World Precision Instruments).
Calcium 6-QF (Molecular Devices) dye was used for live-cell calcium imaging as described by Romac et al., Nat. Commun. 9(1):1715 (2018). Cells were imaged in HBSS buffer with 2 mM Ca^2+. Faintly and highly fluorescent loaded cells were excluded from analysis. […]

pancreatic acini [3] = assay: CCK-induced [Ca2+]i in pancreatic acini; type: cell-based, mouse; design: effect on CCK-induced sustained [Ca2+]i elevation: dose or concentration left out as unconfirmed
Method: as §1, §2

pancreatic acini [4] = assay: Cell death assays of pancreatic acini (LDH release, Live/Dead, live-cell imaging); type: cell-based
Method: The viability of pancreatic acini with Yoda1 and CCK treatments was analyzed using the Live/Dead Cell Imaging Kit (Thermo Fisher Scientific, catalog R37601) or the LDH Release Assay Kit (Promega, catalog G1780).

pancreatic acini [5] = assay: Mitochondrial depolarization in pancreatic acini (TMRE); type: cell-based, mouse
Method: Live-cell mitochondrial depolarization was analyzed using the mitochondrial labeling dye, TMRE. Isolated acini were plated on a thin-layered, Matrigel-coated, glass-bottom culture plate with DMEM/F12 and 10% FBS media and placed in a CO2 incubator for 1 hr at 37° C. After 1 hr, the acini were incubated with TMRE (200 nM) in the bath buffer containing 140 mM NaCl, 4.7 mM KCl, 2.0 CaCl2, 1 mM MgCl2, 10 mM HEPES, and 10 mM glucose (pH adjusted to 7.4 with NaOH) for 30 minutes. The TMRE dye was washed and replaced with fresh bath buffer. The images were captured with a Zeiss Axio observer Z1 microscope with MetaMorph software (Molecular Devices) at intervals of 600 ms. TMRE was excited at 540-600 nm and emission collected at 585-675 nm. Carbonyl cyanide 4-(trifluoromethoxy) phenylhydrazone (FCCP), which uncouples the oxidative phosphorylation process and depolarizes mitochondria, was used as a positive control. A maximum of 2 mitochondrial puncta were taken per acinar cell.

pancreatic acini [6] = assay: Trypsinogen activation in pancreatic acini (BZiPAR); type: cell-based, mouse
Method: To visualize Piezo1-induced trypsinogen activation, acini were loaded with active trypsin enzyme substrate BZiPAR (10 μM). Na-HEPES buffer with 2 mM Ca^2+ was used during imaging. A Zeiss Axio observer Z1 with a high-sensitivity EMCCD camera with a ×40/0.75 EC-Plan-NeoFluar DIC objective was used to capture the Z-stack images with stack thickness of 3 μm at an interval of 12 seconds. The BZiPAR fluorescent wavelength Ex/Em was 498/521 nm. BZiPAR was excited at 470-510 nm and emission collected at 495-550 nm. The captured images were analyzed with MetaMorph software (Molecular Devices).

T2 sequence (E2JF22 whole entry): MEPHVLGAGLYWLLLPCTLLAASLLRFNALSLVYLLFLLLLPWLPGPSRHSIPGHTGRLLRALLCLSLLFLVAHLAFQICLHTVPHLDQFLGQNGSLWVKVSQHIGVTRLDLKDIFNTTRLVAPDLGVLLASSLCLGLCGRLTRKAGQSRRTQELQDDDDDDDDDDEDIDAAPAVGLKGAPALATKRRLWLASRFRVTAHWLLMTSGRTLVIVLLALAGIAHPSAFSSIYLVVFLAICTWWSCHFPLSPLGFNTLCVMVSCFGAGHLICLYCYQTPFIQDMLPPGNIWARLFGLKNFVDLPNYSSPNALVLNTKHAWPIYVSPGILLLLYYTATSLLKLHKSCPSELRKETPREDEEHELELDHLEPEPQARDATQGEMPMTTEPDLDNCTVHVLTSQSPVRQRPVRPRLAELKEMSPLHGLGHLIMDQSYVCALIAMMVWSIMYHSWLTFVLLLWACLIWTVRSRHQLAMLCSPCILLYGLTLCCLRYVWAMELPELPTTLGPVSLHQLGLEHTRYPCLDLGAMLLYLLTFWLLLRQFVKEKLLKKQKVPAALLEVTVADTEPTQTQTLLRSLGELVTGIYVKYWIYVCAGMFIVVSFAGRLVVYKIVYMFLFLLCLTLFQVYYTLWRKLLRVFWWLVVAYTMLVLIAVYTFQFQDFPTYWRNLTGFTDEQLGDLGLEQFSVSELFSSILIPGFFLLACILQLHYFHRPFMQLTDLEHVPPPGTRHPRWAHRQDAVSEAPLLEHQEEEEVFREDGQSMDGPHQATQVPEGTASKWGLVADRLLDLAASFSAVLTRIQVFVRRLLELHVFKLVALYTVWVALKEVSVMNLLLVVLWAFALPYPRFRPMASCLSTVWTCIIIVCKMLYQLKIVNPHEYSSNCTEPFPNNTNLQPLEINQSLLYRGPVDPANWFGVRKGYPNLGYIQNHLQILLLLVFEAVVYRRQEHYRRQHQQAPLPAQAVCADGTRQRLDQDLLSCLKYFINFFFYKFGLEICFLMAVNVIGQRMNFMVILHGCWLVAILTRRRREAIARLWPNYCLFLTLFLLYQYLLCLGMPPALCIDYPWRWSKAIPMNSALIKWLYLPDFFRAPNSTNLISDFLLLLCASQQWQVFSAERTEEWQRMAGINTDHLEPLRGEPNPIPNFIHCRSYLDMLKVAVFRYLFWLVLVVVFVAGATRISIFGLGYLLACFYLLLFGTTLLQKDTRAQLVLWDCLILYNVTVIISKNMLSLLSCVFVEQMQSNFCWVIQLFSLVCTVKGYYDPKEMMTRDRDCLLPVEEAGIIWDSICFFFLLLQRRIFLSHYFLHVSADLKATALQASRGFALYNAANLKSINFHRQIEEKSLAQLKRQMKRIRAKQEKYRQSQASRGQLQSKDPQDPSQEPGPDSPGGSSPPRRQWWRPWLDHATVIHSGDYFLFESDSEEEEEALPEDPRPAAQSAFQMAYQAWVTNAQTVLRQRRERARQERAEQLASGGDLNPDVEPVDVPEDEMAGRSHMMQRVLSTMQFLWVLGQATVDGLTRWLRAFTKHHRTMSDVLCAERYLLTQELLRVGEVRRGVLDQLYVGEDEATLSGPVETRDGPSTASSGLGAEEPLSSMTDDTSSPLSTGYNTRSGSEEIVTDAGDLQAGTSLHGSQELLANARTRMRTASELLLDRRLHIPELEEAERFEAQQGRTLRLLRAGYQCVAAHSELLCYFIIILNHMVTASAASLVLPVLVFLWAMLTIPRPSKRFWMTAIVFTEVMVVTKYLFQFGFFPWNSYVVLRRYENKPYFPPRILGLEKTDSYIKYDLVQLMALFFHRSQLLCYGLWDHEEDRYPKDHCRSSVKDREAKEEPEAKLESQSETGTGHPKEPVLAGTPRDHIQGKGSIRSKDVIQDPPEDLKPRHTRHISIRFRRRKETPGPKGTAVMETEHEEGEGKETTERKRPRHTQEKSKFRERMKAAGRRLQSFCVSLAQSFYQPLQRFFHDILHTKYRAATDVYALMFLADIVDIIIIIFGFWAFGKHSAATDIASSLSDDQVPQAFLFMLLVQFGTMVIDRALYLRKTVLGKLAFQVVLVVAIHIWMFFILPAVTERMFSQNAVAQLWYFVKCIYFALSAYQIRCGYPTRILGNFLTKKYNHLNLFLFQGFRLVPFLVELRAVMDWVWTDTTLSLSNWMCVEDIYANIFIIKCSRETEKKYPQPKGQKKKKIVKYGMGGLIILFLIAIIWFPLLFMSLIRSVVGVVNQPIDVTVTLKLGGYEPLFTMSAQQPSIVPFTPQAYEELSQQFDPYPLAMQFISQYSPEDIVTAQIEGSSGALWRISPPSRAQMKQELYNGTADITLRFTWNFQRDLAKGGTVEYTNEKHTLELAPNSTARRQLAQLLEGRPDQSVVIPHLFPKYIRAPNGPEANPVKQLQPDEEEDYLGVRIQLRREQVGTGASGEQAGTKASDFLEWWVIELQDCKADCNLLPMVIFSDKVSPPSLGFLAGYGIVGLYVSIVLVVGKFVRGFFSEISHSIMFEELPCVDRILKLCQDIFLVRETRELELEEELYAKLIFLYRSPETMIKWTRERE
T1 sequence (Q9EPK8 whole entry): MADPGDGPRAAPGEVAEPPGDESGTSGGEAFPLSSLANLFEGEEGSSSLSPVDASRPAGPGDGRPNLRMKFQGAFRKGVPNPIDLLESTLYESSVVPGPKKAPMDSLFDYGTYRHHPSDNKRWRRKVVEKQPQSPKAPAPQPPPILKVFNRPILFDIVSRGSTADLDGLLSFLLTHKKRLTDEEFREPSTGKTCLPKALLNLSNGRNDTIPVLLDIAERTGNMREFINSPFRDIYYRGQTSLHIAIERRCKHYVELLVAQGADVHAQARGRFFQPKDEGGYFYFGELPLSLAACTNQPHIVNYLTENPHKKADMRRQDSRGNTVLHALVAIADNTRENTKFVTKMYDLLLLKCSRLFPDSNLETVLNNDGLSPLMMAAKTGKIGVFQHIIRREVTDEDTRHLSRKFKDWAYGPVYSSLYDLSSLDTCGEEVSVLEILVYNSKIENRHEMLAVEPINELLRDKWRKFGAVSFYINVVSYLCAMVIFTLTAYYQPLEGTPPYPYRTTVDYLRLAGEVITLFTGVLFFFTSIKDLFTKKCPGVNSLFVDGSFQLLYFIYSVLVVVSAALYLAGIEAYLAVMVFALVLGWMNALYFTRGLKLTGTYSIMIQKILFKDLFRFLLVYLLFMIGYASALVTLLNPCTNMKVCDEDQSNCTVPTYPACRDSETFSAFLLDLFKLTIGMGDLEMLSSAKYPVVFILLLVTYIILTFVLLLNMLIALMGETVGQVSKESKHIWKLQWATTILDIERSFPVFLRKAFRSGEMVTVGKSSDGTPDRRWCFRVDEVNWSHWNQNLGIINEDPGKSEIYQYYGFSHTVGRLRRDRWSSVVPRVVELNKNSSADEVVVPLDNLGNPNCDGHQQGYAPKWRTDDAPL

Compound: CCCCC/C=C\C/C=C\C/C=C\CC1OC1CCCC(=O)O (stereo not drawn) [5′,6′-EET, 5′,6′-epoxyeicosatrienoic acid]
agonist effect on [Ca2+]i (TRPV4): induced significant increases in [Ca^2+]i

Compound: CCCCC/C=C\C/C=C\C/C=C\C/C=C\CCCC(=O)O [AA, arachidonic acid]
agonist effect on [Ca2+]i (TRPV4): induced significant increases in [Ca^2+]i

Compound: CCCCC/C=C\C/C=C\C/C=C\C/C=C\CCCC(=O)C(F)(F)F [AACOCF3]
effect on Yoda1-induced sustained [Ca2+]i elevation, YM26734 and AACOCF3 together (Piezo1 [1]; Yoda1 25 μM): blocked the Yoda1-induced sustained [Ca^2+]i elevation
effect on Yoda1-mediated sustained [Ca2+]i elevation, YM26734 and AACOCF3 together (Piezo1 [2]): significantly inhibited the Yoda1-mediated sustained elevation in [Ca^2+]i

Compound: CC(=O)OCOC(=O)CN(CC(=O)OCOC(C)=O)c1ccccc1OCCOc1ccccc1N(CC(=O)OCOC(C)=O)CC(=O)OCOC(C)=O [BAPTA-AM]
effect on Yoda1-induced sustained Ca2+ rise (Piezo1 [1]; BAPTA-AM 20 μM preincubated 30 minutes, Yoda1 50 μM): abolished the sustained Ca^2+ rise
effect on CCK-induced [Ca2+]i (pancreatic acini [3]; BAPTA-AM 20 μM preincubated 30 minutes, CCK 1 nM): completely eliminated the effect of CCK on [Ca^2+]i
effect on Yoda1-induced LDH release (pancreatic acini [4]; BAPTA-AM preincubated 30 minutes, Yoda1 50 μM): protected pancreatic acini from Yoda1-induced LDH release
effect on Yoda1-induced mitochondrial depolarization (pancreatic acini [5]; BAPTA-AM 20 μM preincubated 20 minutes): protected from Yoda1-induced mitochondrial depolarization

Compound: Cc1cccc(F)c1C(=O)Nc1cnc(-c2cc3c(cc2Cl)OC(F)(F)O3)cn1 [CM4620]
effect on Yoda1-induced [Ca2+]i rise (Piezo1 [1]; CM4620 5 μM preincubated 1 hr, Yoda1 25 μM): did not alter the rise in [Ca^2+]i following Yoda1 stimulation
effect on CCK-induced sustained [Ca2+]i elevation (pancreatic acini [3]; CM4620 preincubated 1 hr, CCK): blocked the sustained elevation in [Ca^2+]i produced by CCK
completeness of block of CCK-induced [Ca2+]i rise (pancreatic acini [3]; CM4620 preincubated 1 hr, either concentration of CCK, residual calcium wave): did not completely block the [Ca^2+]i rise

Compound: CN(C)CCCn1cc(C2=C(c3c[nH]c4ccccc34)C(=O)NC2=O)c2ccccc21 [GF109203X]
effect of protein kinase A and C blockers on Yoda1-induced sustained calcium elevation (Piezo1 [1]): did not significantly affect the Yoda1-induced sustained calcium elevation

Compound: CCCCCCOC(=O)[C@]1(O)C[C@@H]2O[C@@]1(C)n1c3ccccc3c3c4c(c5c6ccccc6n2c5c31)C(=O)NC4 [KT5720]
effect of protein kinase A and C blockers on Yoda1-induced sustained calcium elevation (Piezo1 [1]): did not significantly affect the Yoda1-induced sustained calcium elevation

effect on GSK101 (50 nM)-induced [Ca2+]i increase (TRPV4; HC067 100 nM, RN1734 30 μM): inhibited
Compound: CC(C)NCCN(C(C)C)S(=O)(=O)c1ccc(Cl)cc1Cl [RN1734]

Compound: CCCCCCCCCCCC(=O)c1c(O)c(C(=O)CCCCCCCCCCC)c(O)c(C2CC(c3ccc(O)cc3)Oc3cc(O)ccc32)c1O (stereo not drawn) [YM26734]
effect on Yoda1-induced sustained [Ca2+]i elevation, YM26734 and AACOCF3 together (Piezo1 [1]; Yoda1 25 μM): blocked the Yoda1-induced sustained [Ca^2+]i elevation
effect of the secretory PLA2 inhibitor alone on Yoda1-induced sustained [Ca2+]i elevation (Piezo1 [1]; YM26734 10 μM, Yoda1 25 μM): substantial and capable of blocking the sustained [Ca^2+]i elevation
effect on Yoda1-mediated sustained [Ca2+]i elevation, YM26734 and AACOCF3 together (Piezo1 [2]): significantly inhibited the Yoda1-mediated sustained elevation in [Ca^2+]i

Compound: C[C@H](CCC(=O)O)C[C@H](C)C[C@H](C)C(=O)/C=C(\O)[C@H](C)C[C@H](C)C/C=C/[C@@H](C)[C@@H](O)[C@@H](C)[C@@H](O)C[C@@H]1CC[C@@](C)([C@H]2CC[C@@](C)([C@@H](C)O)O2)O1 [ionomycin]
[Ca2+]i response to ionomycin after Yoda1 (25 μM) treatment (Piezo1 [2]; ionomycin 1 μM, mouse PSCs): All cells responded

Compound: CCK: secretagogue that stimulates pancreatic enzyme secretion by increasing [Ca2+]i
cell damage (LDH release) in WT vs Piezo1aci-KO acini (pancreatic acini [4]; CCK 1 nM): produced comparable cell damage
acinar cell death, both Yoda1 and CCK vs individual application (pancreatic acini [4]; Yoda1 50 μM + CCK 1 nM, WT acini): acinar cell death was greater
time to mitochondrial depolarization after application (pancreatic acini [5]; Yoda1 50 μM, CCK 10 nM): > 10 min
CCK-mediated trypsin activation, WT vs Piezo1aci-KO acini (pancreatic acini [6]; CCK 10 nM): similar
trypsin activation (BZiPAR fluorescence) (pancreatic acini [6]; Yoda1 50 μM or CCK 10 nM): activated trypsin in pancreatic acini over time
time to trypsin activation after application (pancreatic acini [6]; Yoda1 50 μM, CCK 10 nM): > 20 min
